Laboratory results reported in EP3120851A1, “4-AMINO-6-(2,6-DICHLOROPHENYL)-8-METHYL-2-(PHENYLAMINO)-PYRIDO[2,3-D]PYRIMIDIN-7(8H)-ONE FOR TREATMENT OF SOLID CANCERS” (Pangaea Biotech S.L., priority 2015, dated 2017).

Tests used:
Assay in all cases: MTT proliferation assay, single agent
Assay type in all cases: cell-based
CD74-ROS1 (wt) = conditions: Lung ADC, ROS1 translocated, 72 h, mean of several independent experiments
Protocol: (§1) The compound of formula (1) was tested using a Thiazolyl Blue Tetrazolium Bromide (MTT) proliferation assay in a panel of tumor cell lines of different origins.
(§2) All culture materials were obtained from Biological Industries (Kibbutz Beit Haemek, Israel) or Invitrogen (Paisley, Scotland, United Kingdom). The non-tumor cell lines HF and HACAT were provided by Vall d'Hebrón Hospital and GmbH, respectively. The PC9 naïve cell line was provided by Mayumi Ono and, the H3122, HCC78 and 11-18 by Daniel Costa. The PC9-GR1, PC9-GR2, PC9-GR3, PC9-GR4, PC9-GR5 and PC9-ER cell lines were derived in house by exposing the parental PC9 cell line to increasing concentrations of erlotinib (ER) or gefitinib (GR). The rest of the cell lines in which compound (1) was tested were purchased from ATCC (H23, H1975, H2228, A549, H460, Calu-6, H1650, SK-MES-1, EBC1, SNU1, AGS, N87, PC3, BxPC3, DLD1, HT29, SW48, SCC9,FaDu, AU565, Gingival, Prostate, SU-DHL-1 and A431). All cell lines were maintained in RPMI medium supplemented with 10% FBS, 50 µg/mL penicillin-streptomycin and 2 mM L-Glutamine. All cells were grown in a humidified atmosphere with 5% CO2 at 37°C.
(§3) Cell viability in response to single agent treatment was assessed by the Thiazolyl Blue Tetrazolium Bromide (MTT) (Sigma, St Louis, MO) assay. Cells from each cell line were seeded at 2000 to 10000 per well in 96-well plates. […] After treatment, cells were incubated with medium containing MTT (0.75 mg/mL in medium) for 1-2 h at 37°C. Culture medium with MTT was removed and formazan crystals reabsorbed in 100 µL DMSO (Sigma, St. Louis, MO). Cell viability was determined by measuring the absorbance at 492 nm, using a microplate reader (BioWhittaker, Walkersville, MD).
(§4) The IC50s shown are the mean of several independent experiments. Standard errors are also listed Table 2. SCC means squamous cell carcinoma, ADC means adenocarcinoma, GBM means glioblastoma.

H23 = conditions: Homo sapiens, NCI-H23, Lung ADC, KRAS, 72 h, mean of several independent experiments
Protocol: as §1, §2, §3, §4

H11-18 = conditions: Lung ADC, EGFR ex21, 72 h, mean of several independent experiments
Protocol: as §1, §2, §3, §4

H2286 = conditions: Homo sapiens, NCI-H2286, SCC Lung, DDR2 mutated, 72 h, mean of several independent experiments
Protocol: as §1, §2, §3, §4

H1703 = conditions: Homo sapiens, NCI-H1703, SCC Lung, DDR2 wt, 72 h, mean of several independent experiments
Protocol: as §1, §2, §3, §4

U118MG = conditions: Homo sapiens, U-118-MG, GBM, ROS1-FIG, 72 h, mean of several independent experiments
Protocol: as §1, §2, §3, §4

H520 = conditions: Homo sapiens, NCI-H520, SCC Lung, DDR2 wt, 72 h, mean of several independent experiments
Protocol: as §1, §2, §3, §4

PC9-ER = conditions: Homo sapiens, PC-9/ER, Lung ADC, EGFR ex19, 72 h, mean of several independent experiments
Protocol: as §1, §2, §3, §4

SCC9 = conditions: Homo sapiens, SCC-9, SCC Head&Neck, DDR2 wt, 72 h, mean of several independent experiments
Protocol: as §1, §2, §3, §4

PC9-GR2 = conditions: Lung ADC, EGFR ex19, 72 h, mean of several independent experiments
Protocol: as §1, §2, §3, §4

HCC78 = conditions: Homo sapiens, Lung ADC, ROS1-SLC34A2, 72 h, mean of several independent experiments
Protocol: as §1, §2, §3, §4

EBC-1 = conditions: Homo sapiens, SCC Lung, c-Met ampl, 72 h, mean of several independent experiments
Protocol: as §1, §2, §3, §4

A431 = conditions: Homo sapiens, A-431, SCC, 72 h, mean of several independent experiments
Protocol: as §1, §2, §3, §4

PC9 = conditions: Homo sapiens, PC-9, Lung ADC, EGFR ex19, 72 h, mean of several independent experiments
Protocol: as §1, §2, §3, §4

CD74-ROS1 (G2032) = conditions: Lung ADC, ROS1 translocated, 72 h, mean of several independent experiments
Protocol: as §1, §2, §3, §4

L239R = conditions: SCC Lung, DDR2 mutated, 72 h, mean of several independent experiments
Protocol: as §1, §2, §3, §4

PC9-GR3 = conditions: Lung ADC, EGFR ex19, 72 h, mean of several independent experiments
Protocol: as §1, §2, §3, §4

H322 = conditions: NCI-H322, Lung BAC, CD74-NRG1, 72 h, mean of several independent experiments
Protocol: as §1, §2, §3, §4

BxPC3 = conditions: Homo sapiens, BXPC-3, Pancreas, mut TP53, 72 h, mean of several independent experiments
Protocol: as §1, §2, §3, §4

PC9-GR1 = conditions: Lung ADC, EGFR ex19, 72 h, mean of several independent experiments
Protocol: as §1, §2, §3, §4

FaDu = conditions: Homo sapiens, SCC Head&Neck, DDR2 wt, 72 h, mean of several independent experiments
Protocol: as §1, §2, §3, §4

I638F = conditions: SCC Lung, DDR2 mutated, 72 h, mean of several independent experiments
Protocol: as §1, §2, §3, §4

Calu6 = conditions: Homo sapiens, Calu-6, Lung ADC, KRAS, 72 h, mean of several independent experiments
Protocol: as §1, §2, §3, §4

H1568 = conditions: NCI-H1568, Lung ADC, CD74-NRG1, 72 h, mean of several independent experiments
Protocol: as §1, §2, §3, §4

WM793 = conditions: Homo sapiens, Melanoma, BRAF V600E, 72 h, mean of several independent experiments
Protocol: as §1, §2, §3, §4

With `Cn1c(=O)c(-c2c(Cl)cccc2Cl)cc2c(N)nc(Nc3ccccc3)nc21` [Compound (1), 4-amino-6-(2,6-dichlorophenyl)-8-methyl-2-(phenylamino)-pyrido[2,3-d]pyrimidin-7(8H)-one] the IC50 (CD74-ROS1 (wt)) was 1.9 µM, the IC50 (H23) was 1.57 µM and the IC50 (H11-18) was 4.9 µM. It also gave an IC50 (H2286) of 0.05 µM, an IC50 (H1703) of 0.55 µM and an IC50 (U118MG) of 2.6 µM. It also gave an IC50 (H520) of 0.35 µM, an IC50 (PC9-ER) of 1.18 µM and an IC50 (SCC9) of 4.35 µM. For the same compound, the IC50 (PC9-GR2) was 2.16 µM, the IC50 (HCC78) was 0.92 µM and the IC50 (EBC-1) was 5.1 µM. It also gave an IC50 (A431) of 1.35 µM, an IC50 (PC9) of 2.85 µM and an IC50 (CD74-ROS1 (G2032)) of 2 µM. For the same compound, the IC50 (L239R) was 0.75 µM, the IC50 (PC9-GR3) was 0.88 µM and the IC50 (H322) was 4.35 µM. For the same compound, the IC50 (BxPC3) was 1.8 µM, the IC50 (PC9-GR1) was 1.45 µM and the IC50 (FaDu) was 4.85 µM. It also gave an IC50 (I638F) of 0.1 µM, an IC50 (Calu6) of 0.72 µM and an IC50 (H1568) of 2.43 µM. For the same compound, the IC50 (WM793) was 1.6 µM.
